Patent publication US20070093520A1, “Method of treatment of diarrhea-predominant irritable bowel syndrome in a subject” (priority 2005, published 2007)

System: diarrhea-predominant IBS subjects
Test: 3007 Study: open-label 52-week safety study, adverse events and withdrawals
Conditions: Placebo/Cilansetron 2 mg

Structure (SMILES): Cc1nccn1C[C@H]1CCc2c(c3cccc4c3n2CCC4)C1=O [cilansetron, (R)-(−)-4,5,6,8,9,10-hexahydro-10-[(2-methyl-1H-imidazol-1-yl)methyl]-11H-pyrido-[3,2,1-jk]-carbazol-11-one]
- TEAE: Eructation: 0 n (%)
- TEAE: Eye Injuries NEC: 0 n (%)
- TEAE: Faecal Abnormality NOS: 1 (<1%) n (%)
- TEAE: Faecal Impaction: 1 (<1%) n (%)
- TEAE: Faecal Incontinence: 3 (1%) n (%)
- TEAE: Faecal Occult Blood Positive: 8 (3%) n (%)
- TEAE: Faeces Abnormal: 7 (3%) n (%)
- TEAE: Faeces Hard: 5 (2%) n (%)
- TEAE: Fibromyalgia: 0 n (%)
- TEAE: Flatulence: 10 (4%) n (%)
- TEAE: Flatulence, Bloating and Distension: 13 (5%) n (%)
- TEAE: Food Poisoning NOS: 2 (<1%) n (%)
- TEAE: Foot Fracture: 1 (<1%) n (%)
- TEAE: Fractures and Dislocations NEC: 0 n (%)
- TEAE: Frequent Bowel Movements: 0 n (%)
- TEAE: Fungal Infection NOS: 1 (<1%) n (%)
- TEAE: Fungal Infections NEC: 4 (1%) n (%)
- TEAE: Gamma-Glutamyltransferase Increased: 3 (1%) n (%)
- TEAE: Gastric Irritation: 0 n (%)
- TEAE: Gastritis (Excl Infective): 0 n (%)
- TEAE: Gastritis NOS: 0 n (%)
- TEAE: Gastroenteritis NOS: 5 (2%) n (%)
- TEAE: Gastroenteritis Viral NOS: 6 (2%) n (%)
- TEAE: Gastrointestinal Atonic and Hypomotility Disorders NEC: 63 (23%) n (%)
- TEAE: Gastrointestinal Disorders: 134 (48%) n (%)
- TEAE: Gastrointestinal Disorders NEC: 2 (<1%) n (%)
- TEAE: Gastrointestinal Dyskinetic Disorders: 2 (<1%) n (%)
- TEAE: Gastrointestinal Histopathology Procedures: 12 (4%) n (%)
- TEAE: Gastrointestinal Infections - Pathogen Class Unspecified: 5 (2%) n (%)
- TEAE: Gastrointestinal Inflammatory Disorders NEC: 1 (<1%) n (%)
- TEAE: Gastrointestinal Motility Disorder NOS: 1 (<1%) n (%)
- TEAE: Gastrointestinal Mucosal Dystrophies and Secretion Disorders: 0 n (%)
- TEAE: Gastrointestinal Signs and Symptoms NEC: 2 (<1%) n (%)
- TEAE: Gastrointestinal Spastic and Hypermotility Disorders: 0 n (%)
- TEAE: Gastrointestinal and Abdominal Pains (Excl Oral and Throat): 33 (12%) n (%)
- TEAE: Gingival Abscess: 0 n (%)
- TEAE: Gingival Atrophy: 0 n (%)
- TEAE: Gingival Disorders NEC: 2 (<1%) n (%)
- TEAE: Gingival Pain: 0 n (%)
- TEAE: Gingival Pains: 0 n (%)
- TEAE: Gingivitis: 2 (<1%) n (%)
- TEAE: Gingivitis Infection NOS: 0 n (%)
- TEAE: Glucose Urine Present: 0 n (%)
- TEAE: Groin Pain: 0 n (%)
- TEAE: Haematocrit Decreased: 0 n (%)
- TEAE: Haemoglobin Decreased: 0 n (%)
- TEAE: Haemorrhoidal Haemorrhage: 2 (<1%) n (%)
- TEAE: Haemorrhoids: 7 (3%) n (%)
- TEAE: Haemorrhoids Aggravated: 1 (<1%) n (%)
- TEAE: Haemorrhoids and Gastrointestinal Varices (Excl Oesophageal): 9 (3%) n (%)
- TEAE: Halitosis: 0 n (%)
- TEAE: Headache NOS: 12 (4%) n (%)
- TEAE: Headache NOS Aggravated: 2 (<1%) n (%)
- TEAE: Headaches NEC: 14 (5%) n (%)
- TEAE: Heart Rate Increased: 1 (<1%) n (%)
- TEAE: Heart Rate and Pulse Investigations: 1 (<1%) n (%)
- TEAE: Heat Exhaustion: 0 n (%)
- TEAE: Heat Injuries (Excl Thermal Burns): 0 n (%)
- TEAE: Helicobacter Pylori Antibody Positive: 0 n (%)
- TEAE: Herpes Simplex: 1 (<1%) n (%)
- TEAE: Herpes Simplex Aggravated: 0 n (%)
- TEAE: Herpes Viral Infections: 2 (<1%) n (%)
- TEAE: Herpes Zoster: 1 (<1%) n (%)
- TEAE: Hiatus Hernia: 0 n (%)
- TEAE: Hyperreflexia: 0 n (%)
- TEAE: Hypoaesthesia: 1 (<1%) n (%)
- TEAE: Infected Varicose Vein: 0 n (%)
- TEAE: Infections NEC: 1 (<1%) n (%)
- TEAE: Infections and Infestations: 67 (24%) n (%)
- TEAE: Influenza: 7 (3%) n (%)
- TEAE: Influenza Viral Infections: 7 (3%) n (%)
- TEAE: Inguinal Hernia NOS: 1 (<1%) n (%)
- TEAE: Inguinal Hernias: 1 (<1%) n (%)
- TEAE: Injury, Poisoning and Procedural Complications: 21 (8%) n (%)
- TEAE: Intervertebral Disc Degeneration NOS: 0 n (%)
- TEAE: Intervertebral Disc Disorder NOS: 0 n (%)
- TEAE: Intervertebral Disc Disorders NEC: 0 n (%)
- TEAE: Intervertebral Disc Herniation: 0 n (%)
- TEAE: Intestinal Haemorrhages: 4 (1%) n (%)
- TEAE: Intraocular Pressure Increased: 1 (<1%) n (%)
- TEAE: Investigations: 49 (18%) n (%)
- TEAE: Irritable Bowel Syndrome: 0 n (%)
- TEAE: Irritable Bowel Syndrome Aggravated: 0 n (%)
- TEAE: Joint Related Disorders NEC: 1 (<1%) n (%)
- TEAE: Joint Related Signs and Symptoms: 3 (1%) n (%)
- TEAE: Joint Sprain: 3 (1%) n (%)
- TEAE: Joint Swelling: 0 n (%)
- TEAE: Kidney Infection NOS: 1 (<1%) n (%)
- TEAE: Laceration: 3 (1%) n (%)
- TEAE: Ligament Sprain: 1 (<1%) n (%)
- TEAE: Limb Discomfort NOS: 1 (<1%) n (%)
- TEAE: Limb Injuries NEC (Incl Traumatic Amputation): 3 (1%) n (%)
- TEAE: Limb Injury NOS: 0 n (%)
- TEAE: Lip and Palate Disorders NEC: 1 (<1%) n (%)
- TEAE: Liver Function Analyses: 11 (4%) n (%)
- TEAE: Liver Function Tests NOS Abnormal: 2 (<1%) n (%)
- TEAE: Localised Infection: 1 (<1%) n (%)
- TEAE: Localised Osteoarthritis: 0 n (%)
- TEAE: Loss of Consciousness: 0 n (%)
- TEAE: Lower Limb Fracture NOS: 1 (<1%) n (%)
- TEAE: Lower Limb Fractures and Dislocations: 2 (<1%) n (%)
- TEAE: Lower Respiratory Tract and Lung Infections: 7 (3%) n (%)
- TEAE: Lymphocyte Count Increased: 0 n (%)
- TEAE: Memory Loss (Excl Dementia): 0 n (%)
- TEAE: Metabolic Bone Disorders: 1 (<1%) n (%)
- TEAE: Metabolism Tests NEC: 2 (<1%) n (%)
- TEAE: Migraine Headaches: 0 n (%)
- TEAE: Migraine NOS: 0 n (%)
- TEAE: Mineral and Electrolyte Analyses: 0 n (%)
- TEAE: Monoarthritis: 1 (<1%) n (%)
- TEAE: Monocyte Count Decreased: 1 (<1%) n (%)
- TEAE: Monocyte Count Increased: 0 n (%)
- TEAE: Mononeuropathies: 1 (<1%) n (%)
- TEAE: Movement Disorder NOS: 1 (<1%) n (%)
- TEAE: Muscle Cramps: 2 (<1%) n (%)
- TEAE: Muscle Infections and Inflammations: 1 (<1%) n (%)
- TEAE: Muscle Pains: 1 (<1%) n (%)
- TEAE: Muscle Related Signs and Symptoms NEC: 2 (<1%) n (%)
- TEAE: Muscle Spasms: 0 n (%)
- TEAE: Muscle Strain: 3 (1%) n (%)
- TEAE: Muscle Tone Abnormalities: 0 n (%)
- TEAE: Muscle, Tendon and Ligament Injuries: 4 (1%) n (%)
- TEAE: Musculoskeletal Chest Pain: 0 n (%)
- TEAE: Musculoskeletal and Connective Tissue Disorders: 31 (11%) n (%)
- TEAE: Musculoskeletal and Connective Tissue Signs and Symptoms NEC: 14 (5%) n (%)
- TEAE: Musculoskeletal and Soft Tissue Imaging Procedures: 1 (<1%) n (%)
- TEAE: Myalgia: 1 (<1%) n (%)
- TEAE: Myasthenia Gravis: 1 (<1%) n (%)
- TEAE: Mycoplasma Infections: 0 n (%)
- TEAE: Myeloradiculopathy: 1 (<1%) n (%)
- TEAE: Myositis: 1 (<1%) n (%)
- TEAE: Nail Fungal Infection NOS: 2 (<1%) n (%)
- TEAE: Nail Infection NOS: 0 n (%)
- TEAE: Nasopharyngitis: 10 (4%) n (%)
- TEAE: Nausea: 10 (4%) n (%)
- TEAE: Nausea and Vomiting Symptoms: 14 (5%) n (%)
- TEAE: Neck Pain: 0 n (%)
- TEAE: Nervous System Disorders: 23 (8%) n (%)
- TEAE: Neurological Signs and Symptoms NEC: 2 (<1%) n (%)
- TEAE: Neuromuscular Junction Dysfunction: 1 (<1%) n (%)
- TEAE: Neutrophil Count Decreased: 0 n (%)
- TEAE: Night Cramps: 0 n (%)
- TEAE: Nitrite Urine Present: 1 (<1%) n (%)
- TEAE: Non-Accidental Overdose: 0 n (%)
- TEAE: Non-Site Specific Injuries NEC: 6 (2%) n (%)
- TEAE: Non-Site Specific Procedural Complications: 5 (2%) n (%)
- TEAE: Ophthalmic Function Diagnostic Procedures: 1 (<1%) n (%)
- TEAE: Oral Dryness and Saliva Altered: 1 (<1%) n (%)
- TEAE: Osteoarthritis Aggravated: 0 n (%)
- TEAE: Osteoarthropathies: 0 n (%)
- TEAE: Osteopenia: 1 (<1%) n (%)
- TEAE: Osteoporosis NOS: 1 (<1%) n (%)
- TEAE: Otitis Media NOS: 1 (<1%) n (%)
- TEAE: Overdoses: 0 n (%)
- TEAE: Pain in Limb: 4 (1%) n (%)
- TEAE: Paraesthesias and Dysaesthesias: 1 (<1%) n (%)
- TEAE: Parkinson's Disease NOS: 0 n (%)
- TEAE: Parkinson's Disease and Parkinsonism: 0 n (%)
- TEAE: Periorbital Haematoma: 0 n (%)
- TEAE: Peripheral Swelling: 0 n (%)
- TEAE: Pharyngitis Streptococcal: 3 (1%) n (%)
- TEAE: Physical Examination Procedures: 1 (<1%) n (%)
- TEAE: Plantar Fasciitis: 2 (<1%) n (%)
- TEAE: Pneumonia Mycoplasmal: 0 n (%)
- TEAE: Pneumonia NOS: 1 (<1%) n (%)
- TEAE: Popliteal Bursitis: 1 (<1%) n (%)
- TEAE: Post Procedural Discomfort: 1 (<1%) n (%)
- TEAE: Post Procedural Pain: 4 (1%) n (%)
- TEAE: Proctalgia: 4 (1%) n (%)
